Measured values as given in patent US12545695B2, “Compounds for inhibiting neovascularization factors and use thereof” (UNIST (ULSAN NATIONAL INSTITUTE OF SCIENCE AND TECHNOLOGY), priority 2019, dated 2026).

Columns and labels:
TRAP1 = biological target: T1, TRAP1 (Homo sapiens, UniProt Q12931); test: Western blot of TRAP1 client proteins (SIRT3, SDHB) in 22Rv1 cell lines; assay type: cell-based; design: dose or concentration left out as unconfirmed; conditions: 22Rv1 cells, 2 hours, normalized with DMSO (FIG. 24)
T1 construct: endogenous in cells; host or cells: 22Rv1
T1 sequence (Q12931 60-704): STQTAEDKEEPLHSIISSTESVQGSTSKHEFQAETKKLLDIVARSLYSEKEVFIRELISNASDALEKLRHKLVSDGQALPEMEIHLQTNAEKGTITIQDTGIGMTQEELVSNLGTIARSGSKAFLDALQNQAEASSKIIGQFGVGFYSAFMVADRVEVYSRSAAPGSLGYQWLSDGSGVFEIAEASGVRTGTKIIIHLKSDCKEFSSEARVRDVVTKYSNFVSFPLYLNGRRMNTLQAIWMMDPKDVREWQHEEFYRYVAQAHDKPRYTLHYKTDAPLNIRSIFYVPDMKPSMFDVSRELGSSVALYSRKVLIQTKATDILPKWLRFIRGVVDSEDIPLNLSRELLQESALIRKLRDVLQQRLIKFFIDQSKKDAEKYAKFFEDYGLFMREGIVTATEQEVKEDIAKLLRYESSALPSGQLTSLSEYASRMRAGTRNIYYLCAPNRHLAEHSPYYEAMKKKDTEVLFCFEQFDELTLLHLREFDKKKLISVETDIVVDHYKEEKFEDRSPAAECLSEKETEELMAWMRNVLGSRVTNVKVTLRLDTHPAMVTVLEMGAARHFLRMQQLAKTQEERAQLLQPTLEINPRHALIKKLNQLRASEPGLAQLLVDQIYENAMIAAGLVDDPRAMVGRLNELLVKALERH
Method: 22Rv1 cell lines were cultured at 37° C. and 5% CO2, and DMEM-low glucose (Sigma) including 10% fetal bovine serum and 1% penicillin & streptomycin was used as the medium.
22Rv1 cell lines were eeded in the number of 5×10^5 on a 60-millimeter plate, and cultured in 3 ml of medium for 24 hours. The next day, the cells were treated with […] SMx and SM-series (SB-U005, SB-U009, SB-U011, SB-U012), mitochondrial heat shock protein 90 (TRAP1) and cultured for 2 hours. Whole cell lysates were made from the cultured cells, electrophoresed, transferred to a PVDF membrane, and then treated with a primary antibody at 4° C. for 18 hours. The next day, the whole cell lysates were treated with a secondary antibody for 1 hour and protein expression was analyzed using a western blotting detection reagent (FIG. 24).
The cultured cells were treated with the SMx molecule and novel compound molecules SB-U005, SB-U009, SB-U011, and SB-U012 synthesized in Example 6 as drugs, and the treatment results were normalized with DMSO.

TRAP-1 = test: ATPase activity assay (PiColorLock Gold Phosphate Detection Kit); assay type: biochemical; conditions: TRAP1 0.5 μM, 0.2 mM ATP, inhibitor 0.520 μM preincubated 30 minutes (FIG. 16)
Method: ATPase activity was measured by measuring the release of inorganic phosphates through the PiColorLock Gold Phosphate Detection Kit (Innova Biosciences) according to the manufacturer's manual. TRAP1 (0.5 μM) was cultured with 0.2 mM ATP in 100 mM Tris, 20 mM KCl, and 6 mM MgCl2 under the conditions of pH 7.0 and 37° C. for 3 hours. Thereafter, the PiColorLock Gold reagent and an accelerator (100:1) were added to a 100 μL ATP hydrolyzate sample. After culturing at 25° C. for 5 minutes, the change in color was stopped by adding 10 μL of a stop solution thereto, and the absorbance at 620 nm was measured by SYNERGY NEO microplate reader (BioTek Instruments).
For inhibitory ability analysis, TRAP1 was cultured with a predetermined concentration (0.520 μM) of inhibitor for 30 minutes and then stirred with ATP. Absorbance values were normalized to a DMSO control and data was expressed as % ATPase activity.
For inhibitory ability analysis, TRAP-1 was cultured with a predetermined concentration (0.520 μM) of inhibitor for 30 minutes and then stirred with ATP. Absorbance values were normalized to a DMSO control and data was expressed as % ATPase activity.

concentrations of the client proteins (SIRT3, SDHB) (TRAP1): significantly decreased
SMILES: COC1=C(OC)C(=O)C(CCCCCCCCCC[P+](c2ccccc2)(c2ccccc2)c2ccccc2)=C(C)C1=O [SMx]
ATPase activity of TRAP-1 (TRAP-1): significantly increased according to the concentration
